# Measured values: patent publication US10519148B2, “Acrylic acid derivative, preparation method and use in medicine thereof” (Zhejiang Hisun Pharmaceutical Co., Ltd., priority 2015, dated 2019)
# Target: T1, ERα (Homo sapiens, UniProt P03372)
# T1 construct: host or cells: MCF-7
# T1 sequence (P03372 1-595): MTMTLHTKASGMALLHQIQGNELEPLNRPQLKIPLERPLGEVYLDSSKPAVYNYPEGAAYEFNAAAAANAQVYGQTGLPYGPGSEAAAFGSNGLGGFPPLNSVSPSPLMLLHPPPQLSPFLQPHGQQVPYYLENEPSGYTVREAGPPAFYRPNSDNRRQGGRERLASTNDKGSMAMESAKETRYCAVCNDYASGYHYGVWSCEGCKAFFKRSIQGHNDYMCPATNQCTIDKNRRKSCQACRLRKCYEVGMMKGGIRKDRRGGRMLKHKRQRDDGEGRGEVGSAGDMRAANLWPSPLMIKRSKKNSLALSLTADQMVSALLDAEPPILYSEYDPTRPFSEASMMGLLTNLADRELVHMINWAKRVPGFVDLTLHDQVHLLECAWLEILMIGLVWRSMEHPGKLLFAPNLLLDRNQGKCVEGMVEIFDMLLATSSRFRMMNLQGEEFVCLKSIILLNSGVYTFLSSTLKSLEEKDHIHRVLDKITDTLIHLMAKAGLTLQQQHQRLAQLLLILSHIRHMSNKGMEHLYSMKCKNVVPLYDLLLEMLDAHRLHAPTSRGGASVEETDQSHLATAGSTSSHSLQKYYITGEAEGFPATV
# Assay: ERα down-regulation immunofluorescence assay in MCF-7 cells
# Format: cell-based
# Conditions: immunofluorescence of ERα level, read-out: IC50 (nM) ERα down-degradation
# Experimental: The down-regulation of the preferred compounds of the present invention on the protein level of ERα is evaluated by immunofluorescence assay using human breast cancer cell line MCF-7. MCF-7 cells used in the experiment were revived directly from frozen cells (about 5×10^6). The MCF-7 frozen cell line (Sigma D5921) purchased from Sigma was stored in DMEM medium containing 2 mM […]. 5% (v/v) Charcoal/Dextran-treated bovine serum […] were added to the revived MCF-7 cells and the cell concentration was determined using Coulter Counter.
# The cells used for the test were diluted to 3.75×10^4 cells/mL with culture medium and 40 μL/well of the above cell suspension was transferred to 384-well black transparent bottom plates and incubated overnight at 37° C., 5% CO2. 10 mM compound stock solutions were diluted to a series of test concentrations (10 mM, 0.1 mM, 1 μM, 0.01 μM etc.) and dispensed into cell plates. 20 μL of 11.1% (v/v) aqueous formaldehyde solution (phosphate buffered saline) was added to each of the different concentrations of the test compounds and MCF-7 cell culture solution (40 μL), and the final concentration of formaldehyde in the solution was 3.7% (v/v). Cells were fixed at room temperature for 20 minutes, washed twice with 250 μL of PBS/Proclin, and then 40 μL of PBS/Proclin was added and refrigerated at 4° C. The immunostaining of the protein was performed using the automated AutoElisa kit. The PBS/Proclin solution was aspirated from each plate well and then 40 μL of PBS containing 0.5% Tween 20 (v/v) was added for cell permeation. After one hour, the plate was washed with 250 μL of PBS/0.05% Tween 20/Proclin for three times, and 20 μL of ERα rabbit monoclonal antibody (Thermofisher) in PBS/Tween™ 20/3% (w/v) BSA solution (1:1000) was added. The plates were incubated overnight at 4° C., washed three times with 250 μL of PBS/Tween™ 20/Proclin, and then 20 μL of goat anti-rabbit IgG AlexaFluor 594 or goat anti-rabbit IgG AlexaFluor 488 antibody (containing Hoechst stain (1:5000) in PBS/Tween™ 20/3% (w/v) BSA solution was added, and the system was incubated at room temperature for one hour. After the plates were washed three times with 250 μL of PBS/0.05% (v/v) Tween™ 20/Proclin, 20 μL of PBS was added and the paltes were kept in dark place at 4° C. The level of estrogen receptor ERα in MCF-7 cells was calculated through Cellomics Arrayscan detection of fluorescence emission intensity at two emission wave bands at 594 nm (24-hour time point) and 488 nm (5-hour time point). The average fluorescence emission intensity of each cell is positively correlated with the ERα receptor level of the cell. The primitive fluorescence data was used to obtain the fitting curve by software such as Origin or Genedata. Half maximal inhibitory concentration IC50 was used to characterize the down-regulation of estrogen receptor ERα by the test compounds, which is the concentration of the test compound when the fluorescence emission intensity is reduced to 50% of the average maximum fluorescence intensity.
row,SMILES,DC50 [nM]
1,"C[C@@H]1Cc2c([nH]c3ccccc23)[C@@H](c2c(F)cc(/C=C/C(=O)O)cc2F)N1CC1(F)CC1 [Example 1, (E)-3-(3,5-difluoro-4-((1R,3R)-2-((1-fluorocyclopropyl)methyl)-3-methyl-2,3,4,9-tetrahydro-1H-pyrido[3,4-b]indol-1-yl)phenyl)acrylic acid]",0.1 to 10
2,"C[C@@H]1Cc2c([nH]c3cccc(F)c23)[C@@H](c2c(F)cc(/C=C/C(=O)O)cc2F)N1CC1(F)CC1 [Example 12, (E)-3-(3,5-difluoro-4-((1R,3R)-5-fluoro-2-((1-fluorocyclopropyl)methyl)-3-methyl-2,3,4,9-tetrahydro-1H-pyrido[3,4-b]indol-1-yl)phenyl)acrylic acid]",0.1 to 10
